Data set [1] has as its system CB1 receptor. Set-up: method as in Herance et al., 2011. The conditions noted are these: knock-out n = 4, wild-type n = 4; period 40–60 min; ref Herance et al., 2011; cited from earlier work.
Data set [2] deals with CB1 receptor. Set-up: method as in Horti et al., 2006. The note with it: ref Horti et al., 2006; cited from earlier work.
In data set [3] the target is CB1 receptor. Set-up: method as in Burns et al., 2007; Liu et al., 2007. The note with it: ref Burns et al., 2007, Liu et al., read-out: affinity to the CB1 receptor, IC50; cited from earlier work.
Data set [4] relates to CB1 receptor. The note with it: human brain; ref Burns et al., 2007; cited from earlier work.
Data set [5] concerns the target T1, CB1 receptor (Mus musculus, UniProt P47746). Briefly: [18F]MK-9470 small animal PET of the mouse brain (%ID/ml, 40–60 min). Set-up: Six male C57BL/6J mice; from tissue; host or cells: brain of living male C57BL/6J mice (in vivo PET). The note with it: for [^18F]MK-9470 %ID/ml: PET 40–60 min, mean ± SD. It counts as in vivo, mouse (C57BL/6J). The source says: Six male C57BL/6J mice (21.5–28.1 g, 6–9 weeks of age; obtained from the Translational Animal Research Center—TARC of the University Medical Center Mainz) were examined. All applicable international, national, and/or institutional guidelines for the care and use of animals were followed. This study was approved by the respective state authorities (Landesuntersuchungsamt Rheinland-Pfalz).
Isoflurane inhalation anesthesia (2% isoflurane vaporized in 60% oxygen) was used to immobilize the mice, which were positioned in the small animal PET scanner in the headfirst prone position. A venous catheter, which was placed in one of the tail veins, was used to inject [^18F]MK-9470. Together with the injection, a 60-min PET measurement was started with a Focus 120 small animal PET scanner (Siemens/CTI, Knoxville, TN, USA). This small animal PET scanner has lutetium oxyorthosilicate detectors having a size of 1.5 × 1.5 × 10 mm^3 for coincidence detection of photons (time window: 6 ns). The resolution in the center of the field of view is ≤1.4 mm. As part of the quality control, a detector normalization and cross-calibration with a dose calibrator (VDC 404, Veenstra Instruments, Joure, Netherlands) were performed regularly. The PET data acquisition took place in the list mode data format.
The list-mode data, acquired for this study, were sorted into a sinogram matrix with frames of 3 × 20, 3 × 60, 3 × 120, 10 × 300 s (=19 frames). The data were reconstructed with filtered back-projection [ramp filter (cut-off = 0.5)] into a 128 × 128 matrix with 95 slices of 0.8 mm thickness (pixel size 0.87 × 0.87 mm^2). Corrections included detector dead time and random coincidences, which yielded images in the unit Bq/ml.
PET data were co-registered to the T2-weighted magnetic resonance image (MRI) template provided by the PMOD software (version 4.0, Zurich, Switzerland) based on the work of Ma et al. ([2005]) and Mirrione et al. ([2007]). […] The outcome parameter was calculated as %ID/ml = mean value of the radioactivity concentration (in the unit Bq/ml)/injected radioactivity (in the unit Bq) × 100% and included the 40–60 min acquisition interval for individual brain regions. All results were reported as mean ± standard deviation. A two-tailed paired t-test was used to compare means for VOI of different receptor densities and thus, four main comparisons were defined before the analyses: cerebellum vs. pons, caudate putamen vs. pons, cerebellum vs. hippocampus, and hippocampus vs. pons. The global significance level was αglobal = 0.05 and a Bonferroni correction yielded a local significance level of αlocal = 0.0125.
To facilitate the comparison between (quantitative, continuous) PET data and (qualitative) IHC data, the data were classified into four categories, namely no (−), low (+), mean (++) and high (+++) accumulation of the radioactivity concentration or immunohistochemical staining. The IHC data were classified based on visual inspections of the results and their descriptions in the literature sources. Statements such as “little or no,” “few” or “void” led to a classification of “–.” Statements like “low,” “some” or “weak” were classified as “+.” Descriptions like “network of CB1-immunoreactive fibers” or “intensely CB1 receptor-ir fiber meshwork” led to a rating of “++” and statements like “dense meshwork of fibers” or “very high concentration of CB1-immunoreactivity” were rated as “+++.” The PET data were classified based on the outcome parameter %ID/ml, ranging from mean values of 1.5–2.6 %ID/ml, and were subdivided into three categories. That is, signals within the interval 1.5–1.8 %ID/ml lead to a rating of “+.” Parameters within the interval 1.8–2.2 %ID/ml were rated as “++” and signals within the interval 2.2–2.6 %ID/ml were classified as “+++.” As there was no brain region devoid of a PET signal, the category “−” was omitted here.

Data set [6] deals with CB1 receptor. The conditions noted are these: cited from earlier work.
Data set [7] deals with CB1 receptor. Briefly: [18F]MK-9470 PET in a CB1 receptor knock-out mouse and a wild-type mouse (re-analysis of the whole time course). It counts as in vivo. The protocol: (§1) Two mice, a CB1 receptor-deficient mouse, and a wild-type mouse, whose data acquisition is described in Miederer et al. ([2013]), were re-analyzed.
(§2) (A) Left: CB1 receptor knock-out mouse, right: wild-type mouse. Positron emission tomography (PET) images were summed from 40 to 60 min [injected radioactivity: 8.5 MBq (CB1^−/−) and 8.0 MBq (CB1^+/+), anaesthesia: 0.2 ml xylazine/ketamine, data acquisition: 60 min]. (B) Standardized volumes-of-interest (VOI) were drawn for the whole mouse brains (n = 2). Extracted radioactivity concentrations were normalized to the maximum radioactivity concentration in the wild-type mouse.

Data set [8] concerns the target T1, CB1 receptor. The description is as above. The data set is classed as in vivo. Set-up: Two mice, a CB1 receptor-deficient mouse, and a wild-type mouse; from tissue; host or cells: brain of a living wild-type mouse; the CB1-/- mouse serves as the receptor-free control. The conditions noted are these: CB1 knock-out vs wild-type mouse. The procedure: as §1, §2
On the set-up of data set [9]: method as in Burns et al., 2007; Liu et al., 2007. The conditions noted are these: ref Burns et al., 2007, Liu et al.; cited from earlier work.
Where [10] appears, read: Tectum mesencephalic: colliculus inferior.
The mark [11] stands for this setting: Tectum mesencephalic: colliculus superior.

Structures are written as SMILES. Read-outs that look alike come from different tables or passages of the source.

T1 sequence (P47746 whole entry): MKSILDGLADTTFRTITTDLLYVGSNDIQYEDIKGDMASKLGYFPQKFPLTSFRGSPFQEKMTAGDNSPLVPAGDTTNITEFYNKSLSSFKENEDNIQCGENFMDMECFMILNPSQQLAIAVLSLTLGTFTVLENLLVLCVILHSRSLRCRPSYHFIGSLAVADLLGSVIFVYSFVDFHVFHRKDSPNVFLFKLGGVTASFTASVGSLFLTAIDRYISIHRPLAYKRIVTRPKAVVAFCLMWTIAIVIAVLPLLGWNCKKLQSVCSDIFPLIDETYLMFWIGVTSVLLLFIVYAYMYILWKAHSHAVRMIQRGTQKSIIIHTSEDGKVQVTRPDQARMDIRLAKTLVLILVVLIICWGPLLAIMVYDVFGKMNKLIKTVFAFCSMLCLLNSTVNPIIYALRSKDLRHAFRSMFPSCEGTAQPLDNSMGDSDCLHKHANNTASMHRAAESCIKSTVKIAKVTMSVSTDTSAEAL

In the case of `[11CH3]Oc1ccc(-c2c(C#N)c(C(=O)NN3CCCCC3)nn2-c2ccc(Cl)cc2Cl)cc1` [[^11C]OMAR, 1–(2,4-dichlorophenyl)-4-cyano-5–(4-[^11C]methoxyphenyl)-N-(piperidin-1-yl)-1H-pyrazole-3-carboxamide], the “lower uptake in knock-out mice as compared to wild-type mice” value in data set [1] was 50%. The “%ID/ml values in mouse brain regions” value in data set [2] is listed as 2.5–6 %ID/ml.

As a reminder, the IC50 is the concentration that inhibits the measured activity by half. Regarding `Cc1ccc(OC(C)(C)C(=O)N[C@@H](C)[C@@H](Cc2ccc(OCCF)cc2)c2cccc(C#N)c2)nc1` [[^18F]MK-9470, N-(1S,2S)-2–(3-cyanophenyl)-3–[4-(2-[^18F]fluoroethoxy)phenyl]-1-methylpropyl-2-methyl-2-[(5-methylpyridin-2-yl)oxy]propanamide], the IC50 in data set [3] was 0.7 nM.

As to `Cc1ccc(OC(C)(C)C(=O)N[C@@H](C)[C@@H](Cc2ccc(OCC[18F])cc2)c2cccc(C#N)c2)nc1` [[^18F]MK-9470, N-(1S,2S)-2–(3-cyanophenyl)-3–[4-(2-[^18F]fluoroethoxy)phenyl]-1-methylpropyl-2-methyl-2-[(5-methylpyridin-2-yl)oxy]propanamide], the “time to plateau after injection” value in data set [4] is listed as “approximately 120 min”; in [6] (rat brain, ref Casteels et al., 2012), “approximately 300 min”. Also, the “Category of [^18F]MK-9470 accumulation” value is given as “++ (Parameters within the interval 1.8–2.2 %ID/ml were rated as “++”)” in data set [5] (Amygdala); “++ (Parameters within the interval 1.8–2.2 %ID/ml were rated as “++”)” in [5] (Basal forebrain septum); “+++ (signals within the interval 2.2–2.6 %ID/ml were classified as “+++.”)” in [5] (Basal ganglia: caudate putamen); “++ (Parameters within the interval 1.8–2.2 %ID/ml were rated as “++”)” in [5] (Brain stem); “++ (Parameters within the interval 1.8–2.2 %ID/ml were rated as “++”)” in data set [5] (Cerebellum (whole region)); “++ (Parameters within the interval 1.8–2.2 %ID/ml were rated as “++”)” in [5] (Cerebral cortex). Besides, the “Category of [^18F]MK-9470 accumulation” value is on record as “+++ (signals within the interval 2.2–2.6 %ID/ml were classified as “+++.”)” in data set [5] (Hippocampus); “++ (Parameters within the interval 1.8–2.2 %ID/ml were rated as “++”)” in data set [5] (Hypothalamus); “+++ (signals within the interval 2.2–2.6 %ID/ml were classified as “+++.”)” in [5] (Mesencephalon (whole region)); “+ (signals within the interval 1.5–1.8 %ID/ml lead to a rating of “+.”)” in data set [5] (Olfactory bulb); “+++ (signals within the interval 2.2–2.6 %ID/ml were classified as “+++.”)” in [5] (Substantia grisea centralis); “+++ (signals within the interval 2.2–2.6 %ID/ml were classified as “+++.”)” in data set [5] (setting [10]). Moreover, the “Category of [^18F]MK-9470 accumulation” value was “+++ (signals within the interval 2.2–2.6 %ID/ml were classified as “+++.”)” in data set [5] (setting [11]), “+++ (signals within the interval 2.2–2.6 %ID/ml were classified as “+++.”)” in data set [5] (Thalamus) and “++ (Parameters within the interval 1.8–2.2 %ID/ml were rated as “++”)” in data set [5] (Whole-brain). The “[^18F]MK-9470 %ID/ml” value is reported as 1.87 ± 0.38 %ID/ml in data set [5] (Amygdala); 2.07 ± 0.29 %ID/ml in data set [5] (Basal forebrain septum); 2.33 ± 0.40 %ID/ml in [5] (Basal ganglia: caudate putamen); 1.95 ± 0.36 %ID/ml in data set [5] (Brain stem); 2.11 ± 0.40 %ID/ml in [5] (Cerebellum (whole region)); 1.92 ± 0.32 %ID/ml in data set [5] (Cerebral cortex). Besides, the “[^18F]MK-9470 %ID/ml” value in data set [5] (Hippocampus) was determined as 2.29 ± 0.41 %ID/ml; in data set [5] (Hypothalamus), 1.99 ± 0.34 %ID/ml; in [5] (Mesencephalon (whole region)), 2.41 ± 0.42 %ID/ml; in data set [5] (Olfactory bulb), 1.47 ± 0.08 %ID/ml; in [5] (Substantia grisea centralis (central gray)) it was 2.56 ± 0.39 %ID/ml; in [5] (setting [10]), 2.48 ± 0.35 %ID/ml. In addition, the “[^18F]MK-9470 %ID/ml” value is 2.44 ± 0.37 %ID/ml in data set [5] (setting [11]), 2.34 ± 0.35 %ID/ml in [5] (Thalamus) and 2.19 ± 0.35 %ID/ml in [5] (Whole-brain). In data set [5] (all brain regions, 40–60 min), the “range of mean values of %ID/ml over brain regions” value is 1.5–2.6 %ID/ml. Moreover, in data set [5] (summed images 40–60 min), the “coefficients of variation for all brain regions” value is 5–20%. For the same compound, the “kinetics in the mouse brain” value in data set [5] (whole brain time course, 60 min) is listed as “slow kinetics”. Moreover, the “time of uptake into the mouse brain after injection” value in data set [5] (whole brain, i.v. tail vein) is recorded as ≤ 5 min. In addition, the “coefficient of variation of whole-brain radioactivity concentration” value in data set [5] (whole brain, interval from maximum to end of acquisition) is “approximately 12%”. The “mean value of radioactivity concentration after reaching maximum” value in data set [5] (whole mouse brain, from maximum until the end of the acquisition (60 min)) is on record as “approximately 2.2 %ID/ml”. Besides, the “portion of the signal allocated to unspecific binding” value in data set [6] (rats, receptor blocking with rimonabant before PET, ref Miederer et al., 2013) is 58%. For the same compound, the “level of the unspecific signal in the CB1 receptor knock-out mouse, of the maximum signal measured in the wild-type mice” value in [7] (whole brain VOI, n = 2) is listed as “about 20%”. Besides, the “unspecific binding, of the signal present in a wild-type mouse” value in data set [7] (whole brain, period of 40–60 min) was “approximately 20%”. Further, the “binding to CB1 receptors in the mouse brain” value in data set [8] is reported as “binds specifically”. For the same compound, the “lipophilicity, logD7.3” value in data set [9] is on record as 4.7.

(Values after publication PMC7714830, “Quantification of the Cannabinoid Type 1 Receptor Availability in the Mouse Brain” (Frontiers in Neuroanatomy, 2020).)
